Calls of active or inactive are those of the source.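 The calls were made as follows: active = activation curve crossing 200% at or below the highest valid dose tested for that sample; inconclusive = flat curve with activation between 30 and 70%, or poor fit; inactive = the rest, including signal falling instead of rising.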
Target: Leucyl-cystinyl aminopeptidase (Mus musculus) (UniProt Q8C129)
Assay: activation of mouse IRAP aminopeptidase activity – biochemical, Leu-AMC fluorescence, cherry-picked samples, selectivity assay for ERAP1 modulator project, dose response (AID 743339)
Conditions: purified IRAP, Leu-AMC cleavage fluorescence, 1 h

Leucyl-cystinyl aminopeptidase (Mus musculus), sequence (Q8C129 whole entry, looked up): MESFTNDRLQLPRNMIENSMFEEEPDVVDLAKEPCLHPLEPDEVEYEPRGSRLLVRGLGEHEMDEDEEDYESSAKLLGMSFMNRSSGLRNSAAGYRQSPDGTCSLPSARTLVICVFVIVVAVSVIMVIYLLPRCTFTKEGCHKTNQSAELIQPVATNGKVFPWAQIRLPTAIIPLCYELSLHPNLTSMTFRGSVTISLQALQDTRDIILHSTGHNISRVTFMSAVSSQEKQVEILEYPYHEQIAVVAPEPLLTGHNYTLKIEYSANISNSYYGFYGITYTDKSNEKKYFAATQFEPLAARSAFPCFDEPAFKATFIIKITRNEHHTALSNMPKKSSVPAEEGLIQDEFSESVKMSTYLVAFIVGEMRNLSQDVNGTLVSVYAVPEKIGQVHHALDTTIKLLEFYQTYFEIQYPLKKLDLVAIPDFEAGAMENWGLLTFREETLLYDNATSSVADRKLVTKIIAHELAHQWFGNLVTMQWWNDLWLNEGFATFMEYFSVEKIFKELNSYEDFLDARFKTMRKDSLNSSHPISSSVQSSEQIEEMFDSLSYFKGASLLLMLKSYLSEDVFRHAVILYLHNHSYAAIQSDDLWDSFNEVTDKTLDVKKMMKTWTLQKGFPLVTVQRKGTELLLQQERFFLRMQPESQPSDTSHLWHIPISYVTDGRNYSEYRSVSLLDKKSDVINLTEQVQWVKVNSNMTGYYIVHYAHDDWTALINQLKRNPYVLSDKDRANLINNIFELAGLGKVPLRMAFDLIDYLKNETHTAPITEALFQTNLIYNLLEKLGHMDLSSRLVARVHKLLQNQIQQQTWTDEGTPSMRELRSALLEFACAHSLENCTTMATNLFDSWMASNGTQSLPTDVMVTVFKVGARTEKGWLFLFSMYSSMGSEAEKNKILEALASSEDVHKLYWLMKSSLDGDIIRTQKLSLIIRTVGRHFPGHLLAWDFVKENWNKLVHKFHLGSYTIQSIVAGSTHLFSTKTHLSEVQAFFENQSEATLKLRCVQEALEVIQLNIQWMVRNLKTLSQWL

COc1ccc2c3c([nH]c2c1)[C@H](CO)N(Cc1cc(F)ccc1F)CC31CN(C)C1
activation (at 11 µM (top of the series)): 1.85% (inactive)

Cc1cc(=O)oc2c(CN3CCCCC3)c(O)ccc12
AC200: 988 nM

CCCN(C)C[C@@H]1OCCCC[C@@H](C)Oc2ccc(NS(=O)(=O)c3cccs3)cc2C(=O)N([C@H](C)CO)C[C@@H]1C
activation (at 11 µM (top of the series)): -6.14% (inactive)

O=c1cc(CN2CCOCC2)c2cc(Cl)c(O)cc2o1
AC200: 1100 nM

CCCN(C)C[C@@H]1OCCCC[C@@H](C)Oc2ccc(NS(=O)(=O)c3ccc(C)cc3)cc2C(=O)N([C@H](C)CO)C[C@@H]1C
activation (at 10 µM (top of the series)): -8.1% (inactive)

COc1ccc(S(=O)(=O)Nc2ccc3c(c2)C(=O)N([C@@H](C)CO)C[C@H](C)[C@H](CN(C)C)OCCCC[C@@H](C)O3)cc1
activation (at 11 µM (top of the series)): -2.35% (inactive)

Cc1cc(=O)oc2cc(OCC(=O)N3CCN(C(C)c4ccccc4)CC3)c(Cl)cc12 (centres undefined)
AC200: 1980 nM

CC1CN(Cc2cc(=O)oc3cc(O)c(Cl)cc23)CC(C)O1 (centres undefined)
AC200: 1350 nM

C[C@H](CO)N1C[C@H](C)[C@@H](CN(C)CC2CC2)Oc2c(NC(=O)Nc3ccc(C(F)(F)F)cc3)cccc2C1=O
activation (at 11 µM (top of the series)): -14.9% (inactive)

CCc1cc(=O)oc2c(CN3CCN(C)CC3)c(O)ccc12
AC200: 1540 nM

Cc1ccccc1-c1ccc2c(c1)O[C@@H](CN(C)Cc1ccc(C(=O)O)cc1)[C@@H](C)CN([C@@H](C)CO)S2(=O)=O
activation (at 11 µM (top of the series)): 4.16% (inactive)

C[C@@H]1CCCCO[C@@H](CN(C)Cc2ccc3c(c2)OCO3)[C@@H](C)CN([C@@H](C)CO)C(=O)c2cc(NS(=O)(=O)c3ccccc3)ccc2O1
activation (at 5.6 µM (top of the series)): 7.88% (inactive)

COc1ccc(CN(C)C[C@@H]2OCCCC[C@H](C)Oc3ccc(NS(=O)(=O)c4cccs4)cc3C(=O)N([C@@H](C)CO)C[C@@H]2C)cc1
activation (at 11 µM (top of the series)): 10.9% (inactive)

CCCN(C)C[C@@H]1OCCCC[C@@H](C)Oc2ccc(NS(=O)(=O)c3c(C)noc3C)cc2C(=O)N([C@H](C)CO)C[C@@H]1C
activation (at 10 µM (top of the series)): -22.5% (inactive)

O=C(C[C@H]1CC[C@H]2[C@@H](COC[C@@H](O)CN2C(=O)Nc2cccc(Cl)c2)O1)N1CCCCC1
activation (at 11 µM (top of the series)): 16.9% (inactive)

CNC[C@H]1OCCCC[C@@H](C)Oc2ccc(NS(=O)(=O)c3ccc(C)cc3)cc2C(=O)N([C@@H](C)CO)C[C@H]1C
activation (at 11 µM (top of the series)): -8.83% (inactive)

COCCCn1c(C(=O)N2CCOCC2)cc2c(=O)n3ccccc3nc21
AC200: > 2600 nM (inactive)

CCCCc1cc(=O)oc2cc(O)ccc12
AC200: 1670 nM

CN(C)Cc1c(O)ccc2cc(-c3nc4ccccc4n3C)c(=O)oc12
AC200: 202 nM

O=C(C[C@@H]1CC[C@@H]2[C@H](COC[C@H](O)CN2C(=O)Nc2cccc(Cl)c2)O1)N1CCCCC1
activation (at 11 µM (top of the series)): 7.14% (inactive)

CCc1cc(=O)oc2c(CNCc3c(F)cccc3Cl)c(O)ccc12
AC200: 832 nM

Cc1c(O)ccc2cc(S(=O)(=O)c3ccccc3)c(=O)oc12
AC200: 439 nM

COCC(=O)N1[C@@H]2Cn3c(ccc(/C=C/c4ccccc4)c3=O)[C@H]1[C@@H](C(=O)N1CCOCC1)[C@@H]2CO
AC200: 757 nM

CO[C@@H]1CN(C)C(=O)c2ccc(NC(=O)Nc3cccc(Cl)c3)cc2OC[C@@H](C)NC[C@H]1C
activation (at 11 µM (top of the series)): 15.1% (inactive)

CC(=O)N1CCN(C(=O)C2(NC(=O)Nc3ccc(C)cc3)CCCCC2)CC1
activation (at 11 µM (top of the series)): 10% (inactive)

COc1ccc(CN(C)C[C@@H]2OCCCC[C@@H](C)Oc3ccc(NS(=O)(=O)c4cccs4)cc3C(=O)N([C@H](C)CO)C[C@@H]2C)cc1
activation (at 11 µM (top of the series)): 3.66% (inactive)

CCN(CC)Cc1c(O)ccc2cc(-c3nc4ccccc4n3C)c(=O)oc12
AC200: 229 nM

C[C@@H]1CCCCO[C@@H](CN(C)CC2CC2)[C@@H](C)CN([C@H](C)CO)C(=O)c2cc(NS(=O)(=O)c3cccs3)ccc2O1
activation (at 11 µM (top of the series)): 11.9% (inactive)

CCCN(C)C[C@@H]1OCCCC[C@@H](C)Oc2ccc(NS(=O)(=O)c3ccc(OC)cc3)cc2C(=O)N([C@H](C)CO)C[C@@H]1C
activation (at 8 µM (top of the series)): -24.7% (inactive)

Cc1noc(C)c1NC(=O)N(C)C[C@@H]1Oc2c(NC(=O)Nc3ccc(F)cc3)cccc2C(=O)N([C@H](C)CO)C[C@@H]1C
activation (at 11 µM (top of the series)): 36.7% (inactive)

COC(=O)[C@H]1[C@H](CO)[C@H]2Cn3c(ccc(-c4ccncc4)c3=O)[C@H]2N1Cc1ccccc1F
activation (at 11 µM (top of the series)): 19% (inactive)

CCNC(=O)[C@@H]1[C@@H](CO)[C@@H]2Cn3c(ccc(/C=C/c4ccccc4)c3=O)[C@H]1N2C(=O)C1CCCC1
AC200: 824 nM

COc1ccc(CN(C)C[C@H]2OCCCC[C@@H](C)Oc3ccc(NS(=O)(=O)c4cccs4)cc3C(=O)N([C@@H](C)CO)C[C@@H]2C)cc1
activation (at 11 µM (top of the series)): 24.3% (inactive)

Cc1cc(=O)oc2c(CN3CCN(C)CC3)c(O)c(Cl)cc12
AC200: 634 nM

CCC(=O)N(C)C[C@H]1Oc2ncc(C#Cc3ccncc3)cc2C(=O)N([C@H](C)CO)C[C@H]1C
activation (at 11 µM (top of the series)): 4.22% (inactive)

Cc1ccccc1-c1ccc2c(c1)O[C@@H](CN(C)Cc1ccc(C(=O)O)cc1)[C@@H](C)CN([C@H](C)CO)S2(=O)=O
activation (at 11 µM (top of the series)): 3.78% (inactive)

COC(=O)[C@H]1[C@H](CO)[C@H]2Cn3c(ccc(/C=C/c4ccccc4)c3=O)[C@@H]1N2C(=O)C1CCC1
AC200: 842 nM

C[C@H]1CN([C@@H](C)CO)C(=O)c2cccc(NC(=O)Nc3ccc(F)cc3)c2O[C@@H]1CN(C)C(=O)Nc1ccc2c(c1)OCO2
activation (at 11 µM (top of the series)): 21.6% (inactive)

C[C@H](CO)N1C[C@H](C)[C@H](CN(C)Cc2ccncc2)Oc2c(NC(=O)Nc3ccc(C(F)(F)F)cc3)cccc2C1=O
activation (at 11 µM (top of the series)): 10.6% (inactive)

C[C@@H]1CCCCO[C@H](CN(C)Cc2ccccc2)[C@H](C)CN([C@H](C)CO)C(=O)c2cc(NS(=O)(=O)c3ccccc3)ccc2O1
activation (at 11 µM (top of the series)): -9.37% (inactive)

C[C@@H]1CN([C@H](C)CO)C(=O)c2cccc(NC(=O)Nc3ccccc3)c2O[C@@H]1CN(C)Cc1ccc(C(=O)O)cc1
activation (at 11 µM (top of the series)): 17.7% (inactive)

CCN(CCCl)c1cc(CN(C)C)cc(NC(=O)c2ccc(C(=O)Nc3cc(CN(C)C)cc(N(CC)CCCl)c3)cc2)c1
activation (at 11 µM (top of the series)): -21% (inactive)

C[C@H](CO)N1C[C@H](C)[C@H](CN(C)CC2CCCCC2)Oc2c(NC(=O)Nc3ccc(C(F)(F)F)cc3)cccc2C1=O
activation (at 11 µM (top of the series)): 12.3% (inactive)

NC(=NCCc1c[nH]c2ccccc12)NS(=O)(=O)c1cc(F)ccc1F
activation (at 11 µM (top of the series)): 20.9% (inactive)

COc1ccc(NC(=O)Nc2ccc3c(c2)C(=O)N([C@@H](C)CO)C[C@@H](C)[C@H](CN(C)Cc2ccc(C(=O)O)cc2)OCCCC[C@H](C)O3)cc1
activation (at 11 µM (top of the series)): 58.5% (inactive)

Cc1noc(C)c1NC(=O)N(C)C[C@@H]1Oc2c(NC(=O)Nc3ccccc3)cccc2C(=O)N([C@H](C)CO)C[C@@H]1C
activation (at 11 µM (top of the series)): 12.9% (inactive)

COc1ccc(CNCc2c(O)c(Cl)cc3c(C)c(C)c(=O)oc23)c(OC)c1
AC200: 493 nM

Cc1c(C)c2ccc(O)c(CN3CCN(C)CC3)c2oc1=O
AC200: 1510 nM

C[C@H]1CN([C@@H](C)CO)C(=O)c2cccc(NC(=O)Nc3ccc(C(F)(F)F)cc3)c2O[C@@H]1CN(C)CC1CC1
activation (at 11 µM (top of the series)): -18.4% (inactive)

O=c1ccc2cc(O)c(O)cc2o1
AC200: 2120 nM

CCc1c(C)c2cc(Cl)c(O)c(CN(C)C)c2oc1=O
AC200: 471 nM

COCC(=O)N1[C@@H]2c3ccc(/C=C/c4ccccc4)c(=O)n3C[C@H]1[C@H](CO)[C@H]2C(=O)N1CCOCC1
AC200: 684 nM

CCCc1cc(=O)oc2c(CN(CC)CC)c(O)c(Cl)cc12
AC200: 638 nM

C[C@@H]1CCCCO[C@@H](CN(C)C)[C@@H](C)CN([C@@H](C)CO)C(=O)c2cc(NS(=O)(=O)c3ccc(F)cc3)ccc2O1
activation (at 11 µM (top of the series)): -0.129% (inactive)
